{
  "source": "patent US11033538B2",
  "about": "“Dosing regimens for the treatment of lysosomal storage diseases using pharmacological chaperones” (Amicus Therapeutics, Inc., priority 2007, dated 2021)",
  "assay_type_in_all_cases": "in vivo, human",
  "key": {"GL-3": {"test_system": "GL-3", "test": "Example 5, skin GL-3 levels by light and electron microscopy", "conditions": "10 patients, baseline and after treatment", "method": "Eight patients in the study received an ascending dose of 25, 100, and then 250 mg b.i.d. over 6 weeks, followed by 50 mg/day for the remainder of the study.\nSkin GL-3 levels at baseline and after treatment as assessed by light and electron microscopy are available for 10 patients."}, "α-GAL": {"test_system": "α-GAL", "method": "Four male patients received a single 150 mg Q.O.D for 12 weeks (Group B); while five male patients received 150 mg Q.O.D. for 24 weeks (Group C). Finally nine female patients were randomized to receive one of three dosages: 50, 150 or 250 mg Q.O.D for 12 weeks (Group D) (FIG. 8).\nEnzymatic activity of α-Gal in leukocytes (white blood cells; WBCs) of the patients was measured as a percentage of the average α-Gal activity in white blood cells of 15 healthy volunteers. α-GAL activity was assessed in fractionated tissue obtained from biopsies, and in blood leukocytes and plasma (from blood collected at baseline and every month)."}, "[1]": {"test_system": "patients with Fabry disease", "test": "Example 15, Gastrointestinal Symptoms Rating Scale", "method": "Patient-reported outcomes were assessed using the Gastrointestinal-Symptoms-Rating-Scale (GSRS), Short Form-36v2TM and Brief-Pain-Inventory-Pain-Severity-Component."}, "[2]": {"conditions": "All Patients, OLE DGJ treatment, (95% CI)"}, "[3]": {"conditions": "Patients with Symptoms at BL, OLE DGJ treatment, (95% CI)"}, "[4]": {"conditions": "Patients with Symptoms at BL, Stage 1"}},
  "note": "Entries after “also recorded” stand apart in the source; their conditions may differ. Like-named read-outs stand apart in the source and are kept apart here. Marks after values point to notes of the source that are not given here.",
  "data": [
    {"smiles": "OC[C@H]1NC[C@H](O)[C@@H](O)[C@H]1O", "note": "[DGJ, (2R,3S,4R,5S)-2-(hydroxymethyl) piperdine-3,4,5-triol]", "values": [
      {"measurement": "skin GL-3 levels", "setting": "GL-3", "result": "Seven patients had skin GL-3 levels that were normal or near normal both before and after treatment; also recorded: Results for the three other patients were difficult to interpret"},
      {"measurement": "mean increase in WBC α-Gal activity", "setting": "α-GAL; eleven good responders, male, pre vs post treatment", "result": 630, "unit": "%"},
      {"measurement": "mean increase in leukocyte α-Gal activity", "setting": "α-GAL; four moderate responders, male", "result": 170, "unit": "%"},
      {"measurement": "number of good responders (α-Gal activity)", "setting": "α-GAL; male patients, Groups A-C", "result": "eleven"},
      {"measurement": "number of moderate responders (α-Gal activity)", "setting": "α-GAL; male patients, Groups A-C", "result": "four"},
      {"measurement": "number of non responders (α-Gal activity)", "setting": "α-GAL; male patients, Groups A-C", "result": "two"},
      {"measurement": "mean increase in WBC α-Gal activity compared to baseline", "setting": "α-GAL; nine female patients, Group D (50, 150 or 250 mg Q.O.D, 12 weeks)", "result": 146, "unit": "%"},
      {"measurement": "leukocyte or kidney α-Gal activity", "setting": "α-GAL; non responders, male", "result": "None of the “non” responders exhibited any overall increase"},
      {"measurement": "mean increase in kidney α-Gal activity", "setting": "α-GAL; one moderate responder, male", "result": 100, "unit": "%"},
      {"measurement": "mean increase in kidney α-Gal activity", "setting": "α-GAL; six of the good responders, male", "result": 1090, "unit": "%"},
      {"measurement": "GSRS Diarrhea, change from Baseline to Month 6", "setting": "[1]; All Patients, ITT-suitable, Stage 1 double-blind, p = 0.03", "result": "−0.3*^2"},
      {"measurement": "GSRS Abdominal Pain, change to Month 24", "setting": "[1]; [2]", "result": "−0.2 (−0.5, +0.1)"},
      {"measurement": "GSRS Constipation, change to Month 24", "setting": "[1]; [2]", "result": "−0.4 (−0.7, +0.0)*^5"},
      {"measurement": "GSRS Diarrhea, change from Baseline (DGJ) or Month 6 (Placebo) to Month 24", "setting": "[1]; [2]", "result": "−0.5 (−0.9, −0.1)*^4"},
      {"measurement": "GSRS Indigestion, change to Month 24", "setting": "[1]; [2]", "result": "−0.4 (−0.7, −0.04)*^4"},
      {"measurement": "GSRS Reflux, change to Month 24", "setting": "[1]; [2]", "result": "−0.2 (−0.5, 0.2)"},
      {"measurement": "GSRS Abdominal Pain, change from Baseline to Month 6", "setting": "[1]; All Patients, Stage 1", "result": 0.0},
      {"measurement": "GSRS Constipation, change from Baseline to Month 6", "setting": "[1]; All Patients, Stage 1", "result": "+0.1"},
      {"measurement": "GSRS Indigestion, change from Baseline to Month 6", "setting": "[1]; All Patients, Stage 1", "result": "−0.1"},
      {"measurement": "GSRS Reflux, change from Baseline to Month 6", "setting": "[1]; All Patients, Stage 1", "result": "−0.1"},
      {"measurement": "GSRS Abdominal Pain, change to Month 24", "setting": "[1]; [3]", "result": "−0.2 (−0.6, 0.1)"},
      {"measurement": "GSRS Constipation, change to Month 24", "setting": "[1]; [3]", "result": "−0.5 (−1.1, +0.0)*^5"},
      {"measurement": "GSRS Diarrhea, change to Month 24", "setting": "[1]; [3]", "result": "−1.0 (−1.5, −0.4)*^4"},
      {"measurement": "GSRS Indigestion, change to Month 24", "setting": "[1]; [3]", "result": "−0.5 (−0.8, −0.06)*^4"},
      {"measurement": "GSRS Reflux, change to Month 24", "setting": "[1]; [3]", "result": "−0.6 (−1.5, 0.2)"},
      {"measurement": "GSRS Abdominal Pain, change from Baseline to Month 6", "setting": "[1]; [4]", "result": "−0.1"},
      {"measurement": "GSRS Constipation, change from Baseline to Month 6", "setting": "[1]; [4]", "result": "+0.2"},
      {"measurement": "GSRS Diarrhea, change from Baseline to Month 6", "setting": "[1]; [4]", "result": "−0.6"},
      {"measurement": "GSRS Indigestion, change from Baseline to Month 6", "setting": "[1]; [4]", "result": "−0.2"},
      {"measurement": "GSRS Reflux, change from Baseline to Month 6", "setting": "[1]; Patients with Symptoms at BL, Stage 1, p = 0.047", "result": "−0.6*^3"}
    ]}
  ]
}
